Measured values reported in patent US8217066B2, “Compounds as lysophosphatidic acid receptor antagonists” (Amira Pharmaceuticals, Inc., priority 2009, dated 2012).

Tests used:
[1] = tested on: A2058 human melanoma cells; experiment: LPA1 chemotaxis assay; assay type: cell-based; conditions: 100 nM LPA, read-out: inhibition of LPA-driven chemotaxis, IC50
Description: Chemotaxis of the A2058 human melanoma cells was measured using the Neuroprobe ChemoTx® System plates (8 μm pore size, 5.7 mm diameter sites). The filter sites were coated with 0.001% fibronectin (Sigma) in 20 mM Hepes, pH 7.4 and allowed to dry. A2058 cells were serum-starved for 24 hours, then harvested with Cell Stripper and resuspended in DMEM containing 0.1% fatty-acid-free bovine serum albumin (BSA) to a concentration of 1×10^6/ml. Cells were mixed with an equal volume of test compound (2×) in DMEM containing 0.1% fatty-acid-free BSA and incubated at 37° C. for 15 minutes. LPA (100 nM in DMEM containing 0.1% fatty-acid-free BSA) or vehicle was added to each well of the lower chamber and 50 μl of the cell suspension/test compound mix was applied to the upper portion of the ChemoTx plate. Plates were incubated at 37° C. for three hours and then the cells removed from the upper portion by rinsing with PBS and scraping. The filter was dried then stained with HEMA 3 Staining System (Fisher Scientific). The absorbance of the filter was read at 590 nm and IC50s were determined using Symyx Assay Explorer.

human LPA1 = target: T1, human LPA1 (Homo sapiens, UniProt Q92633); experiment: LPA1 calcium flux assay (HLPA1 Ca Flux); assay type: cell-based; conditions: CHO cells stably expressing human LPA1, stimulated with 10 nM LPA
T1 construct: the full-length cDNA for human LPA1 was obtained by PCR of the reverse transcription reaction; expressed in transfected cells
T1 sequence (Q92633 whole entry): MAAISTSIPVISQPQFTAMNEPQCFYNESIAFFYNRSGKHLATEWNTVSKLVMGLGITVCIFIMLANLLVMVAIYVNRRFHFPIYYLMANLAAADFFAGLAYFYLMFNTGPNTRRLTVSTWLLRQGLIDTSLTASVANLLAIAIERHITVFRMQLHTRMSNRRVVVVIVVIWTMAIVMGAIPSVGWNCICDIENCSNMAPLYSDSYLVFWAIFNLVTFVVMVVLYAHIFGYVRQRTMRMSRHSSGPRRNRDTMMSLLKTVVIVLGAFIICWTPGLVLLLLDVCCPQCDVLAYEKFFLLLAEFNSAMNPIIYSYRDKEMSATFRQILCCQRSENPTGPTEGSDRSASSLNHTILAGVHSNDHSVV
Description: A 1.1 kb cDNA encoding the human LPA1 receptor was cloned from human lung. Human lung RNA (Clontech Laboratories, Inc. USA) was reverse transcribed using the RETROscript kit (Ambion, Inc.) and the full-length cDNA for human LPA1 was obtained by PCR of the reverse transcription reaction. The nucleotide sequence of the cloned human LPA1 was determined by sequencing and confirmed to be identical to the published human LPA1 sequence (An et al. Biochem. Biophys. Res. Commun. 231:619 (1997). The cDNA was cloned into the pcDNA5/FRT expression plasmid and transfected in CHO cells using lipofectamine 2000 (Invitrogen Corp., USA). Clones stably expressing human LPA1 were selected using hygromycin and identified as cells that show Ca-influx in response to LPA.
Human LPA1 or LPA3 expressing CHO cells are seeded at 20,000-45,000 cells per well in a 96-well poly-D-lysine coated plate one or two days before the assay. Prior to the assay, the cells are washed once with PBS and then cultured in serum-free media overnight. On the day of the assay, a calcium indicator dye (Calcium 4, Molecular Devices) in assay buffer (HBSS with Ca^2+ and Mg^2+ and containing 20 mM Hepes and 0.3% fatty-acid free human serum albumin) is added to each well and incubation continued for 1 hour at 37° C. […] of test compounds in 2.5% DMSO are added to the cells and incubation continued at room temperature for 30 minutes. Cells are the stimulated by the addition of 10 nM LPA and intracellular Ca^2+ measured using the Flexstation 3 (Molecular Devices). IC50s are determined using Graphpad prism analysis of drug titration curves.

Row | Structure (SMILES) | IC50 [1] | IC50 (human LPA1)
1 | Cc1noc(-c2ccc(-c3ccc(C4(C(=O)O)CC4)cc3)cc2)c1NC(C)CCc1cccc(Cl)c1 (single isomer, unassigned) [Compound 57, 1-(4′-{4-[3-(3-Chloro-phenyl)-1-methyl-propylamino]-3-methyl-isoxazol-5-yl}-biphenyl-4-yl)-cyclopropanecarboxylic acid] | < 0.1 µM | –
2 | Cc1noc(-c2ccc(-c3ccc(C4(C(=O)O)CC4)cc3)cc2)c1NC(C)CCc1cccc(F)c1 (centres unmarked) [Compound 30, 1-(4′-{4-[3-(3-Fluoro-phenyl)-1-methyl-propylamino]-3-methyl-isoxazol-5-yl}-biphenyl-4-yl)-cyclopropanecarboxylic acid] | < 0.1 µM | < 0.3 µM
3 | Cc1noc(-c2ccc(-c3ccc(C4(C(=O)NS(C)(=O)=O)CC4)cc3)cc2)c1C(O)C(F)(F)CCc1ccccc1 (centres unmarked) [Compound 76, N-(1-{4′-[4-(2,2-Difluoro-1-hydroxy-4-phenyl-butyl)-3-methyl-isoxazol-5-yl]-biphenyl-4-yl}-cyclopropanecarbonyl)-methanesulfonamide] | < 0.1 µM | < 0.3 µM
4 | Cc1noc(-c2ccc(-c3ccc(C4(C(=O)NS(C)(=O)=O)CC4)cc3)cc2)c1[C@H](O)CO[C@H](C)c1ccccc1 [Compound 72, N-[1-(4′-{4-[(S)-1-Hydroxy-2-((R)-1-phenyl-ethoxy)-ethyl]-3-methyl-isoxazol-5-yl]-biphenyl-4-yl)-cyclopropanecarbonyl}-methanesulfonamide] | < 0.1 µM | < 0.3 µM
5 | Cc1noc(-c2ccc(-c3ccc(C4(C(=O)O)CC4)cc3)cc2)c1NC(C)CCc1cccc(Cl)c1 (centres unmarked) [Compound 41, 1-(4′-{4-[3-(3-Chloro-phenyl)-1-methyl-propylamino]-3-methyl-isoxazol-5-yl}-biphenyl-4-yl)-cyclopropanecarboxylic acid] | < 0.1 µM | –
6 | Cc1noc(-c2ccc(-c3ccc(C4(C(=O)O)CC4)cc3)cc2)c1COCC(C)c1ccccc1 (centres unmarked) [Compound 11, 1-{4′-[3-Methyl-4-(2-phenyl-propoxymethyl)-isoxazol-5-yl]-biphenyl-4-yl}-cyclopropanecarboxylic acid] | – | < 0.3 µM
7 | Cc1noc(-c2ccc(-c3ccc(C4(C(=O)O)CC4)cc3)cc2)c1CNCC(C)c1ccccc1 (centres unmarked) [Compound 13, 1-(4′-{3-Methyl-4-[(2-phenyl-propylamino)-methyl]-isoxazol-5-yl}-biphenyl-4-yl)-cyclopropanecarboxylic acid] | – | < 0.3 µM
8 | Cc1noc(-c2ccc(-c3ccc(C4(C(=O)O)CC4)cc3)cc2)c1CNCC(O)c1ccccc1 (centres unmarked) [Compound 12, 1-(4′-{4-[(2-Hydroxy-2-phenyl-ethylamino)-methyl]-3-methyl-isoxazol-5-yl}-biphenyl-4-yl)-cyclopropanecarboxylic acid] | – | 1 to 50 µM
9 | Cc1noc(-c2ccc(-c3ccc(C4(C(=O)O)CC4)cc3)cc2)c1CCOCc1ccc(Cl)cc1 [Compound 17, 1-(4′-{4-[2-(4-Chloro-benzyloxy)-ethyl]-3-methyl-isoxazol-5-yl}-biphenyl-4-yl)-cyclopropanecarboxylic acid] | – | < 0.3 µM
10 | Cc1noc(-c2ccc(-c3ccc(C4(C(=O)O)CC4)cc3)cc2)c1NCC(C)Cc1ccc(C(C)C)cc1 (centres unmarked) [Compound 3, 1-(4′-{4-[3-(4-Isopropyl-phenyl)-2-methyl-propylamino]-3-methyl-isoxazol-5-yl}-biphenyl-4-yl)-cyclopropanecarboxylic acid] | – | 0.3 to 1 µM
11 | Cc1noc(-c2ccc(-c3ccc(C4(C(=O)O)CC4)cc3)cc2)c1C(O)COCc1cccc(C(F)(F)F)c1 (centres unmarked) [Compound 58, 1-(4′-{4-[1-Hydroxy-2-(3-trifluoromethyl-benzyloxy)-ethyl]-3-methyl-isoxazol-5-yl}-biphenyl-4-yl)-cyclopropanecarboxylic acid] | – | < 0.3 µM
12 | Cc1noc(-c2ccc(-c3ccc(C4(C(=O)O)CC4)cc3)cc2)c1C(O)CSCc1cccc(C(F)(F)F)c1 (centres unmarked) [Compound 63, 1-(4′-{4-[1-Hydroxy-2-(3-trifluoromethyl-benzylsulfanyl)-ethyl]-3-methyl-isoxazol-5-yl}-biphenyl-4-yl)-cyclopropanecarboxylic acid] | – | < 0.3 µM
13 | Cc1noc(-c2ccc(-c3ccc(C4(C(=O)O)CC4)cc3)cc2)c1CCOCc1ccccc1 [Compound 7, 1-{4′-[4-(2-Benzyloxy-ethyl)-3-methyl-isoxazol-5-yl]-biphenyl-4-yl}-cyclopropanecarboxylic acid] | – | < 0.3 µM
14 | Cc1noc(-c2ccc(-c3ccc(C4(C(=O)O)CC4)cc3)cc2)c1NC(C)CCc1c(F)cccc1Cl (centres unmarked) [Compound 55, 1-(4′-{4-[3-(2-Chloro-6-fluoro-phenyl)-1-methyl-propylamino]-3-methyl-isoxazol-5-yl}-biphenyl-4-yl)-cyclopropanecarboxylic acid] | – | < 0.3 µM
15 | Cc1noc(-c2ccc(-c3ccc(C4(C(=O)O)CC4)cc3)cc2)c1C(O)CCCc1cccc(C(F)(F)F)c1 (centres unmarked) [Compound 36, 1-(4′-{4-[1-Hydroxy-4-(3-trifluoromethyl-phenyl)-butyl]-3-methyl-isoxazol-5-yl}-biphenyl-4-yl)-cyclopropanecarboxylic acid] | – | < 0.3 µM
16 | Cc1noc(-c2ccc(-c3ccc(C4(C(=O)O)CC4)cc3)cc2)c1CCOC(C)c1ccccc1 (centres unmarked) [Compound 14, 1-(4′-{3-Methyl-4-[2-(1-phenyl-ethoxy)-ethyl]-isoxazol-5-yl}-biphenyl-4-yl)-cyclopropanecarboxylic acid] | – | < 0.3 µM

The remaining lines, values ahead:

Row | IC50 [1] | IC50 (human LPA1) | Structure (SMILES)
17 | < 0.1 µM | – | Cc1noc(-c2ccc(-c3ccc(C4(C(=O)O)CC4)cc3)cc2)c1C(O)COCc1ccccc1 (centres unmarked) [Compound 42, 1-{4′-[4-(2-Benzyloxy-1-hydroxy-ethyl)-3-methyl-isoxazol-5-yl]-biphenyl-4-yl}-cyclopropanecarboxylic acid]
18 | < 0.1 µM | – | Cc1noc(-c2ccc(-c3ccc(C4(C(=O)O)CC4)cc3)cc2)c1NC(C)CCc1ccccc1 (centres unmarked) [Compound 4, 1-{4′-[3-Methyl-4-(1-methyl-3-phenyl-propylamino)-isoxazol-5-yl]-biphenyl-4-yl}-cyclopropanecarboxylic acid]
19 | < 0.1 µM | – | Cc1noc(-c2ccc(-c3ccc(C4(C(=O)O)CC4)cc3)cc2)c1NC(C)CCc1ccccc1 (single isomer, unassigned) [Compound 51, 1-{4′-[3-Methyl-4-(1-methyl-3-phenyl-propylamino)-isoxazol-5-yl]-biphenyl-4-yl}-cyclopropanecarboxylic acid]
20 | < 0.1 µM | – | Cc1noc(-c2ccc(-c3ccc(C4(C(=O)O)CC4)cc3)cc2)c1C(O)COCc1ccccc1 (single isomer, unassigned) [Compound 47, 1-{4′-[4-(2-Benzyloxy-1-hydroxy-ethyl)-3-methyl-isoxazol-5-yl]-biphenyl-4-yl}-cyclopropanecarboxylic acid]
21 | < 0.1 µM | < 0.3 µM | Cc1noc(-c2ccc(-c3ccc(C4(C(=O)O)CC4)cc3)cc2)c1[C@H](O)CSCc1ccccc1 [Compound 65, 1-{4′-[4-((S)-2-Benzylsulfanyl-1-hydroxy-ethyl)-3-methyl-isoxazol-5-yl]-biphenyl-4-yl}-cyclopropanecarboxylic acid]
22 | – | < 0.3 µM | Cc1noc(-c2ccc(-c3ccc(C4(C(=O)O)CC4)cc3)cc2)c1CCCCc1ccccc1 [Compound 6, 1-{4′-[3-Methyl-4-(4-phenyl-butyl)-isoxazol-5-yl]-biphenyl-4-yl}-cyclopropanecarboxylic acid]
23 | – | < 0.3 µM | Cc1noc(-c2ccc(-c3ccc(C4(C(=O)O)CC4)cc3)cc2)c1C(O)CC(C)(C)Cc1ccccc1 (centres unmarked) [Compound 70, 1-{4′-[4-(1-Hydroxy-3,3-dimethyl-4-phenyl-butyl)-3-methyl-isoxazol-5-yl]-biphenyl-4-yl}-cyclopropanecarboxylic acid]
24 | – | < 0.3 µM | Cc1noc(-c2ccc(-c3ccc(C4(C(=O)O)CC4)cc3)cc2)c1CC(O)CCc1ccccc1 (centres unmarked) [Compound 20, 1-{4′-[4-(2-Hydroxy-4-phenyl-butyl)-3-methyl-isoxazol-5-yl]-biphenyl-4-yl}-cyclopropanecarboxylic acid]
25 | – | < 0.3 µM | Cc1noc(-c2ccc(-c3ccc(C4(C(=O)O)CC4)cc3)cc2)c1C(O)C(C)CCc1ccccc1 (centres unmarked) [Compound 44, 1-{4′-[4-(1-Hydroxy-2-methyl-4-phenyl-butyl)-3-methyl-isoxazol-5-yl]-biphenyl-4-yl}-cyclopropanecarboxylic acid]
